Values after ≈ are worked out from the molar mass of the structure shown.
test system: SRS-A synthesis or release from peritoneal exudate cells; assay: Anti-SRS-A activity (SRS-A synthesis or release from peritoneal exudate cells); type: cell-based, SD rats; settings: rat peritoneal exudate cells, Ca++-ionophore A23187 1 μg/ml, indomethacin 10 μg/ml; SRS-A determined by contractility of isolated guinea pig ileum; read-out: Inhibitory Concentration IC50
Procedure: Peritoneal exudate cells were collected from glycogen-injected SD rats and adjusted to 1×10^7 cells/ml with Tyrode's solution. One milliliter of the cell suspension was incubated with indomethacin (10 μg/ml) and each varied concentration of the test compound for 10 minutes and, then, further incubated with Ca^++ -ionophore (A23187, 1 μg/ml) for 10 minutes. The supernatant was collected by centrifugation and the SRS-A (slow-reacting substance of anaphylaxis) activity was determined in terms of contractility of the isolated guinea pig ileum in the presence of mepyramine, atropine and methysergide.
The results were expressed in terms of the 50% inhibitory concentration to SRS-A synthesis or release from peritoneal exudate cells.

In order of falling IC50:
1. COc1cc(/C=C/C=C/C(=O)NCCN2CCC(c3c[nH]c4ccccc34)CC2)ccc1O [Compound B, 1-[2-{5-(4-Hydroxy-3-methoxyphenyl)-(2E, 4E)-2,4-pentadienoylamino}ethyl]-4-(3-indolyl)piperidine]  0.91 µg/mL (≈ 2.04 µM)
2. COc1cc(/C=C/C=C/C(=O)NCCN2CCC(c3c[nH]c4ccccc34)CC2)cc(OC)c1O [Compound C, 1-[2-{5-(4-Hydroxy-3,5-dimethoxyphenyl)-(2E, 4E)-2,4-pentadienoylamino}ethyl]-4-(3-indolyl)piperidine]  0.68 µg/mL (≈ 1.43 µM)
3. O=C(/C=C/C=C/c1cc(Cl)c(O)c(Cl)c1)NCCN1CCC(c2c[nH]c3ccccc23)CC1 [Compound F, 1-[2-{5-(3,5-Dichloro-4-hydroxyphenyl)-(2E, 4E)-2,4-pentadienoylamino}ethyl]-4-(3-indolyl)piperidine]  0.65 µg/mL (≈ 1.34 µM)
4. COc1cc(/C=C/C=C/C(=O)NCCN2CCC(c3c[nH]c4ccccc34)CC2)ccc1OC(C)=O [Compound D, 1-[2-{5-(4-Acetoxy-3-methoxyphenyl)-(2E, 4E)-2,4-pentadienoylamino}ethy]-4-(3-indolyl)piperidine]  0.6 µg/mL (≈ 1.23 µM)
5. COc1cc(/C=C/C=C/C(=O)NCCN2CCC(c3c[nH]c4ccccc34)CC2)cc(OC)c1OC(C)=O [Compound E, 1-[2-{5-(4-Acetoxy-3,5-dimethoxyphenyl)-(2E, 4E)-2,4-pentadienoylamino}ethyl]-4-(3-indolyl)piperidine]  0.23 µg/mL (≈ 0.444 µM)

test system: anaphylactic asthma in guinea pigs; assay: Antagonistic action on anaphylactic asthma in guinea pigs; type: in vivo, Male Hartley-strain guinea pigs; settings: Cavia porcellus; oral, 30 min before 5% egg-white albumin aerosol; passively sensitized guinea pigs, 5 per group; survival for not less than 2 hours; read-out: Prophylactic Effect ED50
Procedure: Antagonistic action on anaphylactic asthma in guinea pigs.
Male Hartley-strain guinea pigs weighing 305-400g were used. These animals were sensitized by intravenous injection of 0.5 ml/animal of rabbit antiserum to egg-white albumin (PCA antibody titer 4,000). After 24 hours, the animals were housed individually in 5.3-liter plastic chambers. Using a commercial sprayer, a 5% egg-white albumin solution was sprayed in the form of an aerosol into each chamber at a rate of 0.16 ml/min for 2 minutes. Thirty minutes prior to the spraying of the egg-white albumin solution, the test compound was administered orally in varied concentrations. Each dosed group consisted of 5 animals. The prophylactic effect to anaphylaxis was expressed in terms of the ED50 value determined on the basis of the number of guinea pigs which had survived for not less than 2 hours after antigen spraying for each administration concentration of the test compound.

In order of rising ED50:
1. COc1cc(/C=C/C=C/C(=O)NCCCCN2CCC(c3c[nH]c4ccccc34)CC2)ccc1O [Compound A, 1-[4-{5-(4-Hydroxy-3-methoxyphenyl)-(2E, 4E)-2,4-pentadienoylamino}butyl]-4-(3-indolyl)-piperidine]  0.5 mg/kg
2. COc1cc(/C=C/C=C/C(=O)NCCN2CCC(c3c[nH]c4ccccc34)CC2)cc(OC)c1O [Compound C, 1-[2-{5-(4-Hydroxy-3,5-dimethoxyphenyl)-(2E, 4E)-2,4-pentadienoylamino}ethyl]-4-(3-indolyl)piperidine]  0.5 mg/kg

Reference: patent publication US5017703A, “Indolylpiperidine compounds, processes for the preparation thereof and pharmaceutical composition comprising the same” (Fujisawa Pharmaceutical Company, Ltd., priority 1988, dated 1991)
